Experimental findings from US5705649A, “Protein staining compositions and methods” (Promega Corporation, priority 1995, dated 1998) are described below.

Assay in all cases: Quantitation of proteins separated by SDS-PAGE (dye extracted from excised bands)
One series concerns bovine serum albumin. The settings on record: 66 Kd. On the procedure:
(§1) The samples used were prepared with Promega Mid-Range Molecular Weight Markers solution (Promega Corp., Madison, Wis., USA, Catalog No. V5231) (referred to hereinafter as "Promega Mid-Range [Molecular Weight] Markers or Standards") diluted into Sample Buffer. Promega Mid-Range Molecular Weight Markers is a solution, at about 0.5 mg/ml, of each of the following proteins as a molecular weight standard: phosphorylase B (apparent molecular weight: 97,400 daltons ("d")), bovine serum albumin (apparent molecular weight: 66,200 d), glutamate dehydrogenase (apparent molecular weight: 55,000 d), ovalbumin (apparent molecular weight: 42,700 d), aldolase (apparent molecular weight: 40,000 d), carbonic anhydrase (apparent molecular weight: 31,000 d), soybean trypsin inhibitor (apparent molecular weight: 21,500 d), and lysozyme (apparent molecular weight: 14,400 d). […] The samples were heated to 95° C. for 10 minutes with occasional vortex treatment in 1.5 ml Eppendorf centrifuge tubes and then centrifuged in an Eppendorf centrifuge for 20 seconds to ensure that the protein in the sample was denatured and well mixed.
(§2) A 10% SDS-PAGE gel was made as described in the Example 5. Promega Mid-Range Molecular Weight Standards were diluted into loading buffer to produce solutions containing 2.0, 1.0, 0.5, and 0.25 μg of protein per band in 5 μl of solution. Duplicate 5 μl solutions of each of these solutions were loaded into 1 of the 10 sample wells in the gel after the solutions were heated at 95° C. for 10 minutes. The gel was then electrophoresed at 160 V until the running dye just eluted from the bottom of the gel. The gel was destained, and signal from stained protein enhanced, for 90 minutes in 30% methanol, 4% acetic acid.
(§3) One of the pair of duplicate bands for the 97.4, 66.2, 55.0 and 42.7 kilodalton standards from the lanes containing 2.0, 1.0, 0.5, and 0.25 μg of protein per band were excised with a razor blade as were two control gel segments from regions of the gel not containing protein. The excised segments were placed in individual 1.5 ml Eppendorf tubes containing 2% SDS and allowed to incubate at room temperature for 72 hours. After this time, the solutions were removed from the extracted segments and acetic acid was added to 2% (v/v) final concentration. The absorption of the solutions at […] was then measured.

Another series deals with ovalbumin. Conditions: 43 Kd. As to the method:
as §1, §2, §3

A further series deals with phosphorylase B. Conditions: 97 kD. On the procedure:
as §1, §2, §3

A further series relates to glutamate dehydrogenase. Conditions: 55 Kd. As to the method: as §1, §2, §3

Each structure is given as a SMILES string.

Turning to `CCCCCCCC(=O)N(c1ccc(OCC)cc1)c1ccc(C(=C2C=CC(=[N+](CC)Cc3cccc(S(=O)(=O)[O-])c3)C=C2)c2ccc(N(CC)Cc3cccc(S(=O)(=O)O)c3)cc2)cc1` [Promega Green 1], the “Absorbance at 630 nm” value is listed as “.052” with bovine serum albumin (0.25 μg/band); “.074” with bovine serum albumin (0.50 μg/band); “.138” with bovine serum albumin (1.00 μg/band); “.192” with bovine serum albumin (2.00 μg/band); “.042” in the series on ovalbumin (0.25 μg/band); “.064” in the series on ovalbumin (0.50 μg/band). Moreover, the “Absorbance at 630 nm” value is listed as “.126” in the series on ovalbumin (1.00 μg/band); “.195” with ovalbumin (2.00 μg/band); “.032” in the series with phosphorylase B (0.25 μg/band); “.053” with phosphorylase B (0.50 μg/band); “.083” with phosphorylase B (1.00 μg/band); “.128” with phosphorylase B (2.00 μg/band). In addition, the “Absorbance at 630 nm” value in the series on glutamate dehydrogenase (0.25 μg/band) is “.053”; in the series with glutamate dehydrogenase (0.50 μg/band), “.063”; in the series on glutamate dehydrogenase (1.00 μg/band), “.105”; with glutamate dehydrogenase (2.00 μg/band), “.138”.
